Experimental data as given in patent US8629143B2, “Potassium channel modulators” (AbbVie Inc., priority 2009, dated 2014).

Biological target: T1, KCNQ 2/3 channels (HEK293 cells stably expressing human KCNQ2 and KCNQ3 subunits) (Homo sapiens, UniProt O43525+O43526)
T1 construct: expressed in transfected cells; host or cells: HEK293
Assay: KCNQ2/3 channel activation, thallium flux FLIPR assay with BTC-AM dye
Assay type: cell-based
Conditions: for Emax: HEK293, maximum response relative to the response produced by 10 μM retigabine (set at 100%), read-out: Max. %; for EC50: HEK293 cells expressing human KCNQ2 and KCNQ3, thallium flux, FLIPR
Outline: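 HEK293 cells stably expressing human KCNQ2/KCNQ3 were loaded with BTC-AM (3 μg/mL, 2 h, RT) and preincubated with compound for 4 min in pH 7.3 gluconate buffer containing 0.1 mM ouabain. Flux was triggered by 6 mM TlNO3/10 mM K2SO4 and read for 3 min; EC50 came from summed responses over basal, with maximum relative to 10 μM retigabine (100%).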

Row | Compound | Emax [%] | EC50 [nM]
1 | O=C(Cc1cccc(OC(F)(F)F)c1)Nn1nc(-c2ccc(Cl)cc2)c2ccccc2c1=O [Example 98, N-[4-(4-chlorophenyl)-1-oxophthalazin-2(1H)-yl]-2-[3-(trifluoromethoxy)phenyl]acetamide] | 80 | 500 to 1000
2 | O=C(Cc1ccc(C(F)(F)F)cc1)Nn1nc(-c2ccc(Cl)cc2)c2ccccc2c1=O [Example 99, N-[4-(4-chlorophenyl)-1-oxophthalazin-2(1H)-yl]-2-[4-(trifluoromethyl)phenyl]acetamide] | 81 | 500 to 1000
3 | O=C(Cc1cccc(C(F)(F)F)c1)Nn1nc(-c2ccc(Cl)cc2)c2ccccc2c1=O [Example 100, N-[4-(4-chlorophenyl)-1-oxophthalazin-2(1H)-yl]-2-[3-(trifluoromethyl)phenyl]acetamide] | 79 | 100 to 500
4 | CN(C)c1ccc(CC(=O)Nn2nc(-c3ccc(Cl)cc3)c3ccccc3c2=O)cc1 [Example 101, N-[4-(4-chlorophenyl)-1-oxophthalazin-2(1H)-yl]-2-[4-(dimethylamino)phenyl]acetamide] | 57 | 1000 to 10000
5 | O=C(Cc1ccc(Br)cc1)Nn1nc(-c2ccc(Cl)cc2)c2ccccc2c1=O [Example 102, 2-(4-bromophenyl)-N-[4-(4-chlorophenyl)-1-oxophthalazin-2(1H)-yl]acetamide] | 112 | 500 to 1000
6 | O=C(Cc1cccc(Cl)c1)Nn1nc(-c2ccc(Cl)cc2)c2ccccc2c1=O [Example 103, 2-(3-chlorophenyl)-N-[4-(4-chlorophenyl)-1-oxophthalazin-2(1H)-yl]acetamide] | 140 | 100 to 500
7 | COc1ccc(CC(=O)Nn2nc(-c3ccc(Cl)cc3)c3ccccc3c2=O)cc1 [Example 104, N-[4-(4-chlorophenyl)-1-oxophthalazin-2(1H)-yl]-2-(4-methoxyphenyl)acetamide] | 97 | 1000 to 10000
8 | COc1cccc(CC(=O)Nn2nc(-c3ccc(Cl)cc3)c3ccccc3c2=O)c1 [Example 105, N-[4-(4-chlorophenyl)-1-oxophthalazin-2(1H)-yl]-2-(3-methoxyphenyl)acetamide] | 84 | 100 to 500
9 | Cc1ccc(CC(=O)Nn2nc(-c3ccc(Cl)cc3)c3ccccc3c2=O)cc1 [Example 107, N-[4-(4-chlorophenyl)-1-oxophthalazin-2(1H)-yl]-2-(4-methylphenyl)acetamide] | 98 | 100 to 500
10 | Cc1cccc(CC(=O)Nn2nc(-c3ccc(Cl)cc3)c3ccccc3c2=O)c1 [Example 108, N-[4-(4-chlorophenyl)-1-oxophthalazin-2(1H)-yl]-2-(3-methylphenyl)acetamide] | 96 | 100 to 500
11 | O=C(CC1CCCC1)Nn1nc(-c2ccc(Cl)cc2)c2ccccc2c1=O [Example 109, N-[4-(4-chlorophenyl)-1-oxophthalazin-2(1H)-yl]-2-cyclopentylacetamide] | 138 | < 100
12 | CC(C)CCC(=O)Nn1nc(-c2ccc(Cl)cc2)c2ccccc2c1=O [Example 110, N-[4-(4-chlorophenyl)-1-oxophthalazin-2(1H)-yl]-4-methylpentanamide] | 120 | < 100
13 | CS(=O)(=O)c1ccc(CC(=O)Nn2nc(-c3ccc(Cl)cc3)c3ccccc3c2=O)cc1 [Example 111, N-[4-(4-chlorophenyl)-1-oxophthalazin-2(1H)-yl]-2-[4-(methylsulfonyl)phenyl]acetamide] | 25 | > 10000
14 | O=C(Cc1ccc(Cl)s1)Nn1nc(-c2ccc(Cl)cc2)c2ccccc2c1=O [Example 112, N-[4-(4-chlorophenyl)-1-oxophthalazin-2(1H)-yl]-2-(5-chloro-2-thienyl)acetamide] | 92 | 100 to 500
15 | O=C(Cc1ccc(Cl)c(F)c1)Nn1nc(-c2ccc(Cl)cc2)c2ccccc2c1=O [Example 114, 2-(4-chloro-3-fluorophenyl)-N-[4-(4-chlorophenyl)-1-oxophthalazin-2(1H)-yl]acetamide] | 119 | 500 to 1000
